# Results published in PubChem BioAssay AID1963834 (Molecular Pharmacology Branch, DTP, NCI, 2024).
# System: 873145-292-R-J1-PDC complex spheroid viability
# Assay: Anticancer human tumor 873145-292-R-J1-PDC patient-derived renal clear cell carcinoma cell line growth inhibition [POLQ]
# Settings: for IC50: curve of first compound; for viability, T/C: stronger effect = lower value
# Experimental: Multicellular complex tumor spheroid response to Polymerase (POL) inhibitors (novobiocin, ART-558, RP6685) in combination with a variety of drugs and investigational agents in selected tumor cell lines
# The POL inhibitors (novobiocin, ART-558, and RP6685) were evaluated both individually and in combination with standard of care and investigational anticancer small molecules within a complex spheroid model of solid tumors. . Complex spheroids include a stromal component modeled by human endothelial cells (HUVEC) and fibroblasts modeled by human mesenchymal stem cells (MSCs). The concentration ranges selected for each drug and investigational agent were based upon clinically achievable concentrations if the clinical Cmax of the agent was known.
# Compounds. The drugs and investigational agents: novobiocin (NSC847541), ART-558 (NSC835418), RP-6685 (NSC848927), peposertib (NSC802822), ceralasertib (NSC780249), elimusertib (NSC800525), camonsertib (NSC841442), AZD-1390 (NSC803789), olaparib (NSC753686), talazoparib (NSC767125), rucaparib (NSC756644), sotorasib (NSC818433), MRTX-1133 (NSC836407), SN-38 (NSC673596), topotecan (NSC609699), epotoside (NSC141540), doxorubicin (NSC123127), gemcitabine (NSC613327), 5-fluorouracil (NSC19893), paclitaxel (NSC125973), vemurafenib (NSC761431), MSA-2 (NSC828583), SN-011 (NSC837082), adavosertib (NSC754352), prexasertib (NSC758257), carboplatin (NSC241240) and oxaliplatin (NSC266046), were obtained from the National Cancer Institute (NCI) Developmental Therapeutics Program Chemical Repository (21). The FDA-approved anticancer drug set is available from the Developmental Therapeutics Program at https://dtp.cancer.gov/organization/dscb/obtaining/. […] The stock solutions were prepared in dimethyl sulfoxide (DMSO, Sigma-Aldrich, St. Louis, MO, cat. D2650), except for the platinum compounds which were prepared in saline (Quality Biological, Gaithersburg, MD, cat. 114-055-101), at 800-fold the tested concentration and stored at -70 degrees C prior to their use. All drugs and investigational agents were tested over a range starting from a high concentration at or near the clinical Cmax and decreasing in half-log increments. If the clinical Cmax for an agent had not been determined, the highest concentration tested was 10 microM, except for SN-38, which was tested at a high concentration of 1 microM.
# Cell Culture. All cells were maintained in an incubator at 37 degrees C and 5% CO2 with 95% humidity. The PDC lines were cultured according to standard operating procedures established by the NCI PDMR (https://pdmr.cancer.gov). Table 3 of the manuscript, lists the cell lines along with the number of the three cell types plated to form the mct-spheroids and media for tumor cell growth. After thawing, all PDC lines, except 997537-175-T-J1-PDC and 415267-285-R-J2-PDC, were cultured in Matrigel-coated flasks prepared with a working solution of 1X Ham's F-12 nutrient mix, without supplementation (Thermo Fisher Scientific, cat. 11765054), 100 U/mL penicillin-streptomycin (Thermo Fisher Scientific, cat. 15140122), and 2.5% Matrigel (Corning Inc., Corning, NY, cat. 354248) for the first three passages. The two PDC lines 997537-175-T-J1-PDC and 415267-285-R-J2-PDC were cultured on uncoated flasks. The 857933-349-R-J2-PDC line was cultured in 6C/Colon 1B media containing advanced DMEM/F-12 (Thermo Fisher Scientific, cat. 12634028), 10 mM HEPES (Thermo Fisher Scientific, cat. 15630080), 1X GlutaMAX supplement (Thermo Fisher Scientific, cat. 35050061), 0.1 mg/mL primocin (InvivoGen, San Diego, CA, cat. ant-pm-2), 10% defined fetal bovine serum, heat inactivated (HyClone Laboratories Inc., Logan, UT, cat. SH30070.03HI), 50% L-WRN conditioned media (ATCC, cat. CRL-3276), 1.25 mM N-Acetyl-L-cysteine (Sigma-Aldrich, cat. A9165), 10 mM nicotinamide (Sigma-Aldrich, cat. N0636), 1X B-27 supplement (Thermo Fisher Scientific, cat. 17504044), 1X N-2 supplement (Thermo Fisher Scientific, cat. […]
# [1] = second compound 0.0316 µM, first compound 0.0316 µM
# [2] = second compound 0.0316 µM, first compound 0.1 µM
# [3] = second compound 0.0316 µM, first compound 0.316 µM
# [4] = second compound 0.0316 µM, first compound 1 µM
# [5] = second compound 0.1 µM, first compound 0.0316 µM
# [6] = second compound 0.1 µM, first compound 0.1 µM
# [7] = second compound 0.1 µM, first compound 0.316 µM
# [8] = second compound 0.1 µM, first compound 1 µM
# [9] = second compound 0.316 µM, first compound 0.0316 µM
# [10] = second compound 0.316 µM, first compound 0.1 µM
# [11] = second compound 0.316 µM, first compound 0.316 µM
# [12] = second compound 0.316 µM, first compound 1 µM
# [13] = second compound 1 µM, first compound 0.0316 µM
# [14] = second compound 1 µM, first compound 0.1 µM
# [15] = second compound 1 µM, first compound 0.316 µM
# [16] = second compound 1 µM, first compound 1 µM
# [17] = second compound 3.16 µM, first compound 0.0316 µM
# [18] = second compound 3.16 µM, first compound 0.1 µM
# [19] = second compound 3.16 µM, first compound 0.316 µM
# [20] = second compound 3.16 µM, first compound 1 µM
# [21] = second compound 10 µM, first compound 0.0316 µM
# [22] = second compound 10 µM, first compound 0.1 µM
# [23] = second compound 10 µM, first compound 0.316 µM
# [24] = second compound 10 µM, first compound 1 µM
# 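Also: spheroids exposed to compounds for 7 days before viability readout.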
# 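For viability, T/C in this document: luminescence signal used as surrogate for viable cell content; 100% = DMSO vehicle control viability.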
smiles,measurement,setting,value
Nc1ccn(C2OC(CO)C(O)C2(F)F)c(=O)n1 (centres undefined) + COC1C(OC(N)=O)C(O)C(Oc2ccc3c(O)c(NC(=O)c4ccc(O)c(CC=C(C)C)c4)c(=O)oc3c2C)OC1(C)C,IC50,second compound 0.0316 µM,> 10000 nM
same,IC50,second compound 0.1 µM,1090 nM
same,IC50,second compound 0.316 µM,243 nM
same,IC50,second compound 1 µM,1280 nM
same,IC50,second compound 3.16 µM,360 nM
same,IC50,second compound 10 µM,> 10000 nM
same,"viability, T/C",[1],59.6%
same,"viability, T/C",[2],46.6%
same,"viability, T/C",[3],52.2%
same,"viability, T/C",[4],46.5%
same,"viability, T/C","second compound 0.0316 µM, first compound 3.16 µM",54.8%
same,"viability, T/C","second compound 0.0316 µM, first compound 10 µM",50.9%
same,"viability, T/C",[5],51.2%
same,"viability, T/C",[6],57.5%
same,"viability, T/C",[7],53.7%
same,"viability, T/C",[8],44.2%
same,"viability, T/C","second compound 0.1 µM, first compound 3.16 µM",51%
same,"viability, T/C","second compound 0.1 µM, first compound 10 µM",43.5%
same,"viability, T/C",[9],60.8%
same,"viability, T/C",[10],52.9%
same,"viability, T/C",[11],47.8%
same,"viability, T/C",[12],48.3%
same,"viability, T/C","second compound 0.316 µM, first compound 3.16 µM",51.4%
same,"viability, T/C","second compound 0.316 µM, first compound 10 µM",46%
same,"viability, T/C",[13],57.8%
same,"viability, T/C",[14],54.8%
same,"viability, T/C",[15],52.7%
same,"viability, T/C",[16],48.8%
same,"viability, T/C","second compound 1 µM, first compound 3.16 µM",49.6%
same,"viability, T/C","second compound 1 µM, first compound 10 µM",48.4%
same,"viability, T/C",[17],61.7%
same,"viability, T/C",[18],60.2%
same,"viability, T/C",[19],50.3%
same,"viability, T/C",[20],43.6%
same,"viability, T/C","second compound 3.16 µM, first compound 3.16 µM",50.7%
same,"viability, T/C","second compound 3.16 µM, first compound 10 µM",52.5%
same,"viability, T/C",[21],59.2%
same,"viability, T/C",[22],52.4%
same,"viability, T/C",[23],52.2%
same,"viability, T/C",[24],45.6%
same,"viability, T/C","second compound 10 µM, first compound 3.16 µM",53.6%
same,"viability, T/C","second compound 10 µM, first compound 10 µM",53.1%
COc1cccc(OCCCN)c1-c1cc(Nc2cnc(C#N)cn2)n[nH]1 + Nc1ccc(C#CCN(C(=O)Cc2ncc(C(F)(F)F)cc2C(F)(F)F)c2ccc(F)cc2)nn1,IC50,second compound 0.0316 µM,> 1000 nM
same,IC50,second compound 0.1 µM,> 1000 nM
same,IC50,second compound 0.316 µM,> 1000 nM
same,IC50,second compound 1 µM,> 1000 nM
same,IC50,second compound 3.16 µM,> 1000 nM
same,IC50,second compound 10 µM,> 1000 nM
same,"viability, T/C","second compound 0.0316 µM, first compound 0.00316 µM",94%
same,"viability, T/C","second compound 0.0316 µM, first compound 0.01 µM",94.2%
same,"viability, T/C",[1],76.3%
same,"viability, T/C",[2],66.6%
same,"viability, T/C",[3],74.3%
same,"viability, T/C",[4],73.2%
same,"viability, T/C","second compound 0.1 µM, first compound 0.00316 µM",91%
same,"viability, T/C","second compound 0.1 µM, first compound 0.01 µM",98.2%
same,"viability, T/C",[5],74.8%
same,"viability, T/C",[6],71.8%
same,"viability, T/C",[7],65.4%
same,"viability, T/C",[8],71.1%
same,"viability, T/C","second compound 0.316 µM, first compound 0.00316 µM",95.5%
same,"viability, T/C","second compound 0.316 µM, first compound 0.01 µM",97%
same,"viability, T/C",[9],67.7%
same,"viability, T/C",[10],66.6%
same,"viability, T/C",[11],79.9%
same,"viability, T/C",[12],77.8%
same,"viability, T/C","second compound 1 µM, first compound 0.00316 µM",96.3%
same,"viability, T/C","second compound 1 µM, first compound 0.01 µM",78.4%
same,"viability, T/C",[13],73.8%
same,"viability, T/C",[14],70.8%
same,"viability, T/C",[15],83.5%
same,"viability, T/C",[16],73.3%
same,"viability, T/C","second compound 3.16 µM, first compound 0.00316 µM",90.3%
same,"viability, T/C","second compound 3.16 µM, first compound 0.01 µM",88.9%
same,"viability, T/C",[17],68.9%
same,"viability, T/C",[18],67.1%
same,"viability, T/C",[19],65.2%
same,"viability, T/C",[20],83.9%
same,"viability, T/C","second compound 10 µM, first compound 0.00316 µM",103%
same,"viability, T/C","second compound 10 µM, first compound 0.01 µM",90.3%
same,"viability, T/C",[21],74.3%
same,"viability, T/C",[22],68.5%
same,"viability, T/C",[23],69.1%
same,"viability, T/C",[24],95.5%
